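Test compounds were applied to cells in 96-well plates for 48 hours at 5 doses. Here, GI50 denotes the concentration required for 50% inhibition of growth. The concentration for full growth arrest is given as TGI.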
Assays:
Assay in all cases: NCI-60 cell line screen, 48 h
HL-60(TB) leukemia = test system: HL-60(TB) leukemia
SW-620 colon = test system: SW-620 colon
SNB-75 CNS = test system: SNB-75 CNS
SK-MEL-5 melanoma = test system: SK-MEL-5 melanoma
NCI-H522 lung = test system: NCI-H522 lung
NCI-H226 lung = test system: NCI-H226 lung
SK-MEL-28 melanoma = test system: SK-MEL-28 melanoma
SF-539 CNS = test system: SF-539 CNS
OVCAR-3 ovarian = test system: OVCAR-3 ovarian
SK-OV-3 ovarian = test system: SK-OV-3 ovarian

What does the source list for `O=C(Oc1ccc(O)c2c(=O)n3c(cc12)[nH]c1ccccc13)c1ccccc1`?
GI50 (HL-60(TB) leukemia): 21.6 µM; TGI (HL-60(TB) leukemia): 51.7 µM; GI50 (SW-620 colon): 5.1 µM; TGI (SW-620 colon): 26.9 µM; GI50 (SNB-75 CNS): 28.3 µM; TGI (SNB-75 CNS): > 100 µM; GI50 (SK-MEL-5 melanoma): 15.5 µM; TGI (SK-MEL-5 melanoma): 36.9 µM; GI50 (NCI-H522 lung): 6.21 µM; TGI (NCI-H522 lung): 41.2 µM; GI50 (NCI-H226 lung): 18.9 µM; TGI (NCI-H226 lung): 64.2 µM; GI50 (SK-MEL-28 melanoma): 24.9 µM; TGI (SK-MEL-28 melanoma): 76.4 µM; GI50 (SF-539 CNS): 6.63 µM; TGI (SF-539 CNS): 36.6 µM

With `COC(=O)CCC/C=C\C[C@H]1C=CC(=O)/C1=C/C[C@@H](O)CCc1cccc(C(F)(F)F)c1` as the compound, how does the GI50 (HL-60(TB) leukemia) read?
The GI50 was 2.53 µM.

What about the TGI (HL-60(TB) leukemia) of the same compound?
Its TGI is 7.17 µM.

And the GI50 (SW-620 colon)?
The GI50 was 3.28 µM.

What about the TGI (SW-620 colon) of the same compound?
Its TGI is 10.6 µM.

What about the GI50 (OVCAR-3 ovarian) of the same compound?
The GI50 was 1.97 µM.

What about the TGI (OVCAR-3 ovarian) of the same compound?
The TGI was 4.08 µM.

And the GI50 (SNB-75 CNS)?
Its GI50 is 5.46 µM.

And the TGI (SNB-75 CNS)?
The TGI was 18.9 µM.

What about the GI50 (SK-OV-3 ovarian) of the same compound?
The GI50 was 4.94 µM.

And the TGI (SK-OV-3 ovarian)?
The TGI was 16.5 µM.

And the GI50 (SK-MEL-5 melanoma)?
Its GI50 is 1.73 µM.

What about the TGI (SK-MEL-5 melanoma) of the same compound?
Its TGI is 3.2 µM.

What about the GI50 (NCI-H522 lung) of the same compound?
Its GI50 is 2.02 µM.

And the TGI (NCI-H522 lung)?
The TGI was 5.57 µM.

And the GI50 (SK-MEL-28 melanoma)?
The GI50 was 1.98 µM.

And the TGI (SK-MEL-28 melanoma)?
Its TGI is 5.2 µM.

What about the GI50 (SF-539 CNS) of the same compound?
The GI50 was 2.9 µM.

What about the TGI (SF-539 CNS) of the same compound?
Its TGI is 9.24 µM.

Which GI50 (HL-60(TB) leukemia) does the source give for `COc1ccc2c(c1)sc1nc(-c3ccccc3)c(-c3ccsc3)n12` here?
The GI50 was 3.95 µM.

What about the TGI (HL-60(TB) leukemia) of the same compound?
The TGI was 92.7 µM.

And the GI50 (SW-620 colon)?
Its GI50 is 3.84 µM.

And the TGI (SW-620 colon)?
The TGI was over 100 µM.

And the GI50 (OVCAR-3 ovarian)?
The GI50 was 2.15 µM.

What about the TGI (OVCAR-3 ovarian) of the same compound?
The TGI was 5.37 µM.

What about the GI50 (SK-OV-3 ovarian) of the same compound?
Its GI50 is 3.48 µM.

What about the TGI (SK-OV-3 ovarian) of the same compound?
The TGI was 64.6 µM.

And the GI50 (SK-MEL-5 melanoma)?
The GI50 was 3.34 µM.

What about the TGI (SK-MEL-5 melanoma) of the same compound?
The TGI was 47.4 µM.

What about the GI50 (NCI-H522 lung) of the same compound?
The GI50 was 2.99 µM.

What about the TGI (NCI-H522 lung) of the same compound?
The TGI was 36.8 µM.

What about the GI50 (NCI-H226 lung) of the same compound?
The GI50 was 2.17 µM.

And the TGI (NCI-H226 lung)?
Its TGI is 18.1 µM.

And the GI50 (SK-MEL-28 melanoma)?
The GI50 was 4.9 µM.

What about the TGI (SK-MEL-28 melanoma) of the same compound?
Its TGI is over 100 µM.

What about the GI50 (SF-539 CNS) of the same compound?
Its GI50 is 2.62 µM.

And the TGI (SF-539 CNS)?
The TGI was over 100 µM.

`CCN(CC)CCn1c2c3ccccc3ccc2c2oc(=O)c3ccccc3c21` was tested. Which TGI (HL-60(TB) leukemia) did it give?
The TGI was over 100 µM.

And the TGI (SW-620 colon)?
The TGI was over 100 µM.

And the TGI (OVCAR-3 ovarian)?
The TGI was over 100 µM.

What about the TGI (SNB-75 CNS) of the same compound?
The TGI was 42.8 µM.

What about the TGI (SK-OV-3 ovarian) of the same compound?
The TGI was over 100 µM.

What about the TGI (NCI-H522 lung) of the same compound?
The TGI was over 100 µM.

What about the TGI (SK-MEL-28 melanoma) of the same compound?
The TGI was over 100 µM.

What about the TGI (SF-539 CNS) of the same compound?
The TGI was 66.1 µM.

What does the source list for `CC(=O)Oc1cc(C)ccc1[C@]1(C)CC[C@H](C)/C1=C\Br`?
GI50 (HL-60(TB) leukemia): 3.41 µM; TGI (HL-60(TB) leukemia): 15 µM; GI50 (SW-620 colon): 5.31 µM; TGI (SW-620 colon): 17.1 µM; GI50 (OVCAR-3 ovarian): 2.61 µM; TGI (OVCAR-3 ovarian): 7.16 µM; GI50 (SK-OV-3 ovarian): 2.43 µM; TGI (SK-OV-3 ovarian): 7.65 µM; GI50 (SK-MEL-5 melanoma): 3.32 µM; TGI (SK-MEL-5 melanoma): 11.5 µM; GI50 (NCI-H522 lung): 5.28 µM; TGI (NCI-H522 lung): 22.7 µM; GI50 (SK-MEL-28 melanoma): 3.62 µM; TGI (SK-MEL-28 melanoma): 15.6 µM; GI50 (SF-539 CNS): 2.32 µM; TGI (SF-539 CNS): 5.1 µM

Which TGI (HL-60(TB) leukemia) does the source give for `CCOC(=O)C(C)(C)Oc1ccc2c(=O)cc(-c3ccc(Cl)cc3)oc2c1` here?
Its TGI is over 100 µM.

And the TGI (SW-620 colon)?
Its TGI is over 100 µM.

What about the TGI (OVCAR-3 ovarian) of the same compound?
Its TGI is over 100 µM.

And the TGI (SNB-75 CNS)?
The TGI was over 100 µM.

What about the TGI (SK-MEL-5 melanoma) of the same compound?
The TGI was over 100 µM.

What about the TGI (NCI-H226 lung) of the same compound?
The TGI was over 100 µM.

What about the TGI (SK-MEL-28 melanoma) of the same compound?
Its TGI is over 100 µM.

And the TGI (SF-539 CNS)?
The TGI was over 100 µM.

With `CCOC(=O)CCC(=O)C1c2cccc(O)c2C(=O)c2c(O)cccc21` as the compound, how does the TGI (HL-60(TB) leukemia) read?
The TGI was 0.657 µM.

And the TGI (SW-620 colon)?
The TGI was 2.24 µM.

What about the TGI (OVCAR-3 ovarian) of the same compound?
Its TGI is 2.26 µM.

And the TGI (SNB-75 CNS)?
Its TGI is 2.33 µM.

And the TGI (SK-MEL-5 melanoma)?
The TGI was 1.4 µM.

What about the TGI (NCI-H522 lung) of the same compound?
The TGI was 1.46 µM.

What about the TGI (SK-MEL-28 melanoma) of the same compound?
Its TGI is 2.68 µM.

And the TGI (SF-539 CNS)?
Its TGI is 1.63 µM.

Which results are given for `O=[N+]([O-])c1c(/C=N/Nc2ccccc2)oc(-c2ccc3c(c2)OCO3)c1-c1ccc2c(c1)OCO2`?
TGI (HL-60(TB) leukemia): 33.5 µM; TGI (SW-620 colon): > 100 µM; TGI (OVCAR-3 ovarian): 98.2 µM; TGI (SNB-75 CNS): > 100 µM; TGI (SK-OV-3 ovarian): > 100 µM; TGI (NCI-H522 lung): > 100 µM; TGI (NCI-H226 lung): > 100 µM; TGI (SK-MEL-28 melanoma): > 100 µM; TGI (SF-539 CNS): > 100 µM

From PubChem BioAssay (NCI)
